Test system in one data set: not listed separately
Kind of data set: terminal elimination half-life for the compound was evaluated after oral administration of a dose of 1 mg/kg in a group of eight conscious dogs. The format is ADME, organism-based, Canis lupus familiaris. Further details: dose 1 mg/kg, route oral. The settings on record: dog, in vivo.
The term half-life denotes the time needed for the level to fall by half in the phase considered. In the case of `CCOC(=O)C[C@H](NC(=O)CN1C(=O)N[C@@](C)(c2ccc(C(=N)N)cc2)C1=O)c1ccccc1.O=C(O)/C=C\C(=O)O` [CARAFIBAN MALEATE], the half-life is 9.9 h.

The species named for another data set is Homo sapiens. Put plainly: Inhibition of human platelet (isolated from PRP) aggregation. It is filed as functional.
Settings: not given
By IC50 is commonly meant the concentration that gives 50% inhibition. A low value points to greater potency in that assay. For the compound `CC1(c2ccc(C(=N)N)cc2)NC(=O)N(CC(=O)N[C@@H](CC(=O)O)C(=O)N[C@H](C(=O)O)c2ccccc2)C1=O` (stereo in doubt; 16), the IC50 worked out at 40 nM.
The same measure, in the same setting: for `CC1(c2ccc(C(=N)N)cc2)NC(=O)N(CC(=O)N[C@@H](CC(=O)O)C(=O)N[C@H](C(=O)O)c2ccccc2)C1=O` (stereo in doubt; 17) the value was 800 nM.

The same data set, now with this note: Homo sapiens.
In turn, `N=C(N)c1ccc(CC2NC(=O)N(CC(=O)N[C@@H](CC(=O)O)C(=O)N[C@H](C(=O)O)c3ccccc3)C2=O)cc1` (stereo partly drawn) gave a half-inhibitory concentration (IC50) of 200 nM.
The compound `CC(C)[C@H](NC(=O)[C@H](CC(=O)O)NC(=O)CN1C(=O)N[C@@H](CCCN=C(N)N)C1=O)C(=O)O` yielded an IC50 of 1000 nM.
`CC(C)C[C@H](NC(=O)[C@H](CC(=O)O)NC(=O)CN1C(=O)N[C@@H](CCCN=C(N)N)C1=O)C(=O)O` showed a half-maximal inhibitory concentration (IC50) of 3000 nM. Against the preceding compound, the IC50 is about 3-fold higher.
Same read-out and setting: then `COC(=O)[C@@H](NC(=O)[C@H](CC(=O)O)NC(=O)CN1C(=O)NC(C)(c2ccc(C(=N)N)cc2)C1=O)c1ccccc1` (stereo partly drawn), with 70 nM; and `N=C(N)c1ccc(/C=C2/NC(=O)N(CC(=O)N[C@@H](CC(=O)O)C(=O)N[C@H](C(=O)O)c3ccccc3)C2=O)cc1`, with 150 nM.
Same read-out and setting: for `N=C(N)NCCC[C@@H]1NC(=O)N(CC(=O)N[C@@H](CC(=O)O)C(=O)N[C@H](C(=O)O)C2CCCCC2)C1=O` the value was 1500 nM; for `N=C(N)Nc1ccc(CC2NC(=O)N(CC(=O)N[C@@H](CC(=O)O)C(=O)N[C@H](C(=O)O)c3ccccc3)C2=O)cc1` (stereo partly drawn), 5500 nM; for `CC1(c2ccc(C(=N)N)cc2)NC(=O)N(CC(=O)N[C@@H](CC(=O)O)C(=O)NC2C3CC4CC(C3)CC2C4)C1=O` (stereo partly drawn), 25 nM.
The same measure, in the same setting: for `CCN1C(=O)N(CC(=O)NC(CC(=O)O)c2ccccc2)C(=O)C1(C)c1ccc(C(=N)N)cc1` (stereo not drawn) the value was 500 nM; for `CC1(c2ccc(C(=N)N)cc2)NC(=O)N(CC(=O)NCC(NC(=O)OCc2ccccc2)C(=O)O)C1=O` (stereo not drawn), 300 nM.
In turn, `N=C(N)c1ccc(C2(C3CC3)NC(=O)N(CC(=O)N[C@@H](CC(=O)O)C(=O)N[C@H](C(=O)O)c3ccccc3)C2=O)cc1` (stereo partly drawn) came in with a half-maximal inhibitory concentration (IC50) of 20 nM.
Same read-out and setting: for `CC1(c2ccc(NC(=N)N)cc2)NC(=O)N(CC(=O)N[C@@H](CC(=O)O)C(=O)N[C@H](C(=O)O)c2ccccc2)C1=O` (stereo partly drawn) the value was 150 nM.
The compound `N=C(N)Nc1ccc(C2NC(=O)N(CC(=O)N[C@@H](CC(=O)O)C(=O)N[C@H](C(=O)O)c3ccccc3)C2=O)cc1` (stereo partly drawn) came in with a half-maximal inhibitory concentration (IC50) of 200 nM.
On the same count and under the same terms, then `CC1(c2ccc(CN)cc2)NC(=O)N(CC(=O)N[C@@H](CC(=O)O)C(=O)N[C@H](C(=O)O)c2ccccc2)C1=O` (stereo partly drawn), with 150 nM; and `N=C(N)Nc1cccc(C2NC(=O)N(CC(=O)N[C@@H](CC(=O)O)C(=O)N[C@H](C(=O)O)c3ccccc3)C2=O)c1` (stereo partly drawn), with 6000 nM; and `N=C(N)NCCC[C@@H]1NC(=O)N(CC(=O)N[C@@H](CC(=O)O)C(=O)N[C@@H](Cc2ccccc2)C(=O)O)C1=O`, with 10000 nM.
As to `CCC1(c2ccc(C(=N)N)cc2)NC(=O)N(CC(=O)N[C@@H](CC(=O)O)C(=O)N[C@H](C(=O)O)c2ccccc2)C1=O` (stereo partly drawn), the IC50 came out at 25 nM.
`N=C(N)c1ccc(C2(Cc3ccccc3)NC(=O)N(CC(=O)N[C@@H](CC(=O)O)C(=O)N[C@H](C(=O)O)c3ccccc3)C2=O)cc1` (stereo partly drawn): the 50% inhibitory concentration (IC50) was determined as 50 nM.

The target of a further data set is T1, Integrin alpha-IIb/beta-3 (Homo sapiens, UniProt P05106+P08514). Put plainly: Inhibition of 125 I-fibrinogen binding to ADP-activated gel filtered human platelets.
T1 sequence (P05106 27-788 limits assumed): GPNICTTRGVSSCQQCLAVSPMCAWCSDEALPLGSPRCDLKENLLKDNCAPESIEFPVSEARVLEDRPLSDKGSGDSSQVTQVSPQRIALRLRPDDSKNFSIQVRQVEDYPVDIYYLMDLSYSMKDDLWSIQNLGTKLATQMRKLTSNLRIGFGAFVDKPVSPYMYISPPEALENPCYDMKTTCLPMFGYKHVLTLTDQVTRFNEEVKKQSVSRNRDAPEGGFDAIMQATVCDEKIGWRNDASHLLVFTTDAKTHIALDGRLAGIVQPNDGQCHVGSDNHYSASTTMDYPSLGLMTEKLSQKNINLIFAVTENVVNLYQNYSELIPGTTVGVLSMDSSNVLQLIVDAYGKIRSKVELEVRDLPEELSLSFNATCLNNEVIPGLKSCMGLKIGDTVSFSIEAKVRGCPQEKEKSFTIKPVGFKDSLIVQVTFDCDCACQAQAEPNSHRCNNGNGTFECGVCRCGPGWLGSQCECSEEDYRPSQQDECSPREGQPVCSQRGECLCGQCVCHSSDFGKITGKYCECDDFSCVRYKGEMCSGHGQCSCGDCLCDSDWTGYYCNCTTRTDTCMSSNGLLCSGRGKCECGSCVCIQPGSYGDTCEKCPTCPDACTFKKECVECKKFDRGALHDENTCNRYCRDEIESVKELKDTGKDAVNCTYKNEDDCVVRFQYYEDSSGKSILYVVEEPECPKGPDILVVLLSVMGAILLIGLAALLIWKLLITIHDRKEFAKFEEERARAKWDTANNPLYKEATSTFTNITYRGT
T1 sequence (P08514 32-887 limits assumed): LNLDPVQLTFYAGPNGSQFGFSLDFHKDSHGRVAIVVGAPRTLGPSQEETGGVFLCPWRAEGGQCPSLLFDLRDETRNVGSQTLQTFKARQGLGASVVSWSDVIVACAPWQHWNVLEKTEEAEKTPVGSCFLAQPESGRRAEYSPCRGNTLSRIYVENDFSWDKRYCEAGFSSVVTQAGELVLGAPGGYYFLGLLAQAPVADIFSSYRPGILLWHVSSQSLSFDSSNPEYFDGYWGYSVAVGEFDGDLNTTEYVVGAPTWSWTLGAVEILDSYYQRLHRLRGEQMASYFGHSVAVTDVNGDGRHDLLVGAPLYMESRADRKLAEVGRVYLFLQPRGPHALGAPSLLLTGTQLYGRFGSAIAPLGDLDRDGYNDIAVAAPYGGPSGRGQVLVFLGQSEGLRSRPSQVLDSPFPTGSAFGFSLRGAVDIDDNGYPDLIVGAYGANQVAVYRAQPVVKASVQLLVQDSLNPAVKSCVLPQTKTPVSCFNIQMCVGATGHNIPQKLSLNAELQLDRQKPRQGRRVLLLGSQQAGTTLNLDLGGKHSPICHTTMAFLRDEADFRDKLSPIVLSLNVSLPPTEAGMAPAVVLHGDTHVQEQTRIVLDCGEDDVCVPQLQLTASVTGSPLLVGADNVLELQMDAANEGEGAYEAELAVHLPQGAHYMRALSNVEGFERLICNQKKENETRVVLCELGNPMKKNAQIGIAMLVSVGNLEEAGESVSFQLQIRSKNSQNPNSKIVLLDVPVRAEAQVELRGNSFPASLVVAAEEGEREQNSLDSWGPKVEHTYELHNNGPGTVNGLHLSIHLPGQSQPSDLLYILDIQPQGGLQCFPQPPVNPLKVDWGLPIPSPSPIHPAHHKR
T1 sequence (P08514 891-1039 limits assumed): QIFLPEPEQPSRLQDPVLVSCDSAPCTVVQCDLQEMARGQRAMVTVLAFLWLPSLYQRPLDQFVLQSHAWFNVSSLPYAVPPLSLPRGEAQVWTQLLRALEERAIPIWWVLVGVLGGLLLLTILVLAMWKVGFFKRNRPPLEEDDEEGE
Settings: not given
Usually Ki stands for a dissociation constant, usually derived from enzyme kinetics or from competition with a known ligand. Read a low Ki as a stronger hold on the target. As for `N=C(N)NCCC[C@@H]1NC(=O)N(CC(=O)N[C@@H](CC(=O)O)C(=O)N[C@H](C(=O)O)c2ccccc2)C1=O`, the inhibition constant Ki is 120 nM.

A further data set deals with T1, Integrin alpha-IIb/beta-3. Put plainly: Inhibition of 125 I-fibrinogen binding to glycoprotein IIb/IIIa receptor.
Settings: not given
The format is protein-complex assay.
Take `N=C(N)Nc1ccc(C2NC(=O)N(CC(=O)N[C@@H](CC(=O)O)C(=O)N[C@H](C(=O)O)c3ccccc3)C2=O)cc1` (stereo partly drawn): the affinity, expressed as Ki, was 30 nM.

(Values after ChEMBL document CHEMBL1134795 (J Med Chem, 2001).)
